Measured values from paper PMC9599520, “The Membrane Activity of the Amphibian Temporin B Peptide Analog TB_KKG6K Sheds Light on the Mechanism That Kills Candida albicans” (mSphere, 2022).
Where a name gives a salt, the structure may show the parent alone. Read-outs that look alike come from different tables or passages of the source. Where no end group is shown, it is not given here.

Legend:
[1] = system: C. albicans cell membrane; experiment: Membrane depolarization assay with DiSC3(5) dye; assay type: cell-based, Candida albicans; conditions: 1 × 10^6 cells/mL, 30°C, 60 min, PCγ^C-terminal 32 μM
C. albicans (CBS 5982) = experiment: microbe, parasite or virus in culture; assay type: cell-based, Candida albicans; conditions: for IC90: Candida albicans, CBS5982, 24 h, 0.05× PDB, 30°C, 24 h, OD620, read-out: IC90 (inhibitory concentration that reduced growth by ≥90%)
[2] = Vesicle leakage assay, PC-PE; assay type: biochemical; conditions: PC-PE-LUVs; 32 μM peptide (1.5:1), negative control; 50 μM lipid, 30 min, 37°C; mean ± SD
[3] = Vesicle leakage assay, PG; assay type: biochemical; conditions: PG-LUVs; 32 μM peptide (1.5:1), negative control; 50 μM lipid, 30 min, 37°C; mean ± SD
[4] = Vesicle leakage assay, PC-PI; assay type: biochemical; conditions: PC-PI-LUVs; 32 μM peptide (1.5:1), negative control; 50 μM lipid, 30 min, 37°C; mean ± SD
[5] = Vesicle leakage assay, PC-ergosterol; assay type: biochemical; conditions: PC-ergosterol-LUVs; 32 μM peptide (1.5:1), negative control; 50 μM lipid, 30 min, 37°C; mean ± SD
[6] = Vesicle leakage assay, PC-sphingomyelin; assay type: biochemical; conditions: PC-sphingomyelin-LUVs; 32 μM peptide (1.5:1), negative control; 50 μM lipid, 30 min, 37°C; mean ± SD
[7] = Vesicle leakage assay, PC-PE-ergosterol; assay type: biochemical; conditions: PC-PE-ergosterol-LUVs; 32 μM peptide (1.5:1), negative control; 50 μM lipid, 30 min, 37°C; mean ± SD
[8] = Vesicle leakage assay, PC-PS; assay type: biochemical; conditions: PC-PS-LUVs; 32 μM peptide (1.5:1), negative control; 50 μM lipid, 30 min, 37°C; mean ± SD
[9] = Vesicle leakage assay, PC; assay type: biochemical; conditions: PC-LUVs; 32 μM peptide (1.5:1), negative control; 50 μM lipid, 30 min, 37°C; mean ± SD
[10] = Vesicle leakage assay, PC-ceramide; assay type: biochemical; conditions: PC-ceramide-LUVs; 32 μM peptide (1.5:1), negative control; 50 μM lipid, 30 min, 37°C; mean ± SD
[11] = Vesicle leakage assay, PC-PS-ergosterol; assay type: biochemical; conditions: PC-PS-ergosterol-LUVs; 32 μM peptide (1.5:1), negative control; 50 μM lipid, 30 min, 37°C; mean ± SD
[12] = Vesicle leakage assay, PC-CL; assay type: biochemical; conditions: PC-CL-LUVs; 32 μM peptide (1.5:1), negative control; 50 μM lipid, 30 min, 37°C; mean ± SD
[13] = Vesicle leakage assay, PG-PE-CL; assay type: biochemical; conditions: PG-PE-CL-LUVs; 32 μM peptide (1.5:1), negative control; 50 μM lipid, 30 min, 37°C; mean ± SD
[14] = Vesicle leakage assay (ANTS-DPX), all LUVs; assay type: biochemical; conditions: 32 μM peptide, negative control, 1% Triton X-100 = 100%
[15] = cited from earlier work
C. albicans cells = experiment: Uptake mechanism (fluorescence microscopy, 4°C or CCCP); assay type: cell-based, Candida albicans; conditions: 2 μM

Triton X-100 [reference compound]
membrane depolarization, DiSC3(5) fluorescence intensity ([1]; […]): fast and sustained increase in fluorescence intensity

CCCCCCCCN=c1ccn(CCCCCCCCCCn2ccc(=NCCCCCCCC)cc2)cc1 [Octenidine, N,N′-(1,10 decanediyldi-1[4H]-pyridinyl-4-ylidene)-bis-(1-octanamine) dihydrochloride]
IC90 (C. albicans (CBS 5982); 1 × 10^4 cells/mL): 1000 nM
IC90 (C. albicans (CBS 5982); 1 × 10^6 cells/mL): 2000 nM

CGGASCRG [PCγ^C-terminal, negative control peptide CGGASCRG derived from the C-terminal part of Penicillium chrysogenum antifungal protein C (PAFC), reference compound]
% Leakage [2]: 1.4 ± 0.6%
membrane depolarization, DiSC3(5) fluorescence intensity ([1]; TB analog 0.5, 1, 2 μM, Triton X-100 1% (wt/vol)): No membrane depolarization
% Leakage [3]: 1.9 ± 1%
% Leakage [4]: 0.4 ± 0.5%
fungal growth inhibition (C. albicans (CBS 5982); peptide concentration 0 to 32 μM): No fungal growth inhibition
% Leakage [5]: 1.1 ± 0.9%
% Leakage [6]: 0.6 ± 0.8%
% Leakage [7]: 1.7 ± 2.0%
% Leakage [8]: 0.9 ± 2.7%
% Leakage [9]: 1.4 ± 1.4%
% Leakage [10]: 1.3 ± 0.2%
% Leakage [11]: 2.0 ± 1.4%
% Leakage [12]: 0.7 ± 0.4%
% Leakage [13]: −1.2 ± 1.6%
% Leakage [14]: ≤ 2%

Temporin B [reference compound]
hydrophobicity (hydrophobic amino acids) [15]: 61%
positive net charge ([15]; pH 7): +0.9

BODIPY-PAFB: P. chrysogenum antifungal protein B (PAFB) conjugated with the green fluorophore BODIPY; control for energy-dependent uptake (LSKFGGECSLKHNTCTYLKGGKNHVVNCGSAANKKCKSDRHHCEYDEHHKRVDCQTPV; cysteine pairing not given here; also: BODIPY label, position not given here; UniProt D0EXD3 35-92, looked up)
uptake into C. albicans cells (C. albicans cells; 30°C, standard condition, 45 min for BODIPY-PAFB): taken up by C. albicans
uptake into C. albicans cells with reduced respiration and metabolism (C. albicans cells; 4°C, or 30°C with 100 μM CCCP, 15 min (FITC-TB_KKG6K), 45 min (BODIPY-PAFB)): no internalization
